Consider one compound from patent US8747890B2 (priority 2009, dated 2014).

The structures appear in SMILES notation.

The conditions of data set [1]: human, whole blood, iv, 9 mg/m2.
A short description of data set [2]: Extrapolation of blood Cmax to an 80 kg human after intravenous infusion. The conditions noted are these: 440 mg/M^2 one hour infusion.

The Cmax is the maximum level reached in the sampled fluid or tissue. As to `COc1cc(C=CC(=O)CC(=O)C=Cc2ccc(O)c(OC)c2)ccc1O` [curcumin, 1,7-bis(4-hydroxy-3-methoxyphenyl)-1,6-heptadiene-3,5-dione], in data set [1], the Cmax was 3.4 µg/mL. In addition, the “Cmax extrapolated to humans” value in data set [2] is 160 µg/mL.
